Results on two compounds are retold here after PMC4233664, “Synergistic Effects of Clopidogrel and Fufang Danshen Dripping Pills by Modulation of the Metabolism Target and Pharmacokinetics” (Evidence-based Complementary and Alternative Medicine : eCAM, 2014).

One may read the CL/F as clearance divided by bioavailability, as obtained after extravascular dosing.

The subject of series [1] is carboxyl esterase 1 (CES1). The following applies: in the liver; cited from earlier work.
The next series relates to cytochrome P450 (CYP). The following applies: cited from earlier work.
Another series relates to antiplatelet responses. The following applies: conventional doses of clopidogrel; cited from earlier work.
Series [2] is described as follows: Pharmacokinetic study of CPGS in rat plasma after oral clopidogrel alone or with FDDP. It counts as in vivo, SD rats. The procedure: Analyses were performed using the Agilent HPLC 1100 system (Agilent, USA) consisting of a quat pump (G1311A), an autosampler (G1313A), and an online degasser (G1322A). The chromatographic separation was performed on an Agilent Zorbax SB C18 column (4.6 mm × 250 mm, 5 μm). A simple gradient method was used, in which the percentage of acetonitrile-buffer (0.2% phosphoric acid in water) was varied as shown in Table 1 at a flow rate of 1.0 mL/min. The injection volume was 10 μL. The total LC run time was 12 min with the column temperature kept at 30°C and the detection at a wavelength of 220 nm.
An aliquot of 10 μL 1 M hydrochloric acid (HCL), 100 μL blood plasma, and 10 μL of IS (160 μg/mL) was added into a 1.5 mL centrifuge tube. After vortex-mixing for 1 min, 1 mL of extraction solvent (ethyl acetate-dichloromethane; 4 : 1, V/V) was added and vortexed vigorously for 4 min, followed by centrifugation for 12 min at 12000 rpm. Next, 950 μL of supernatant was transferred into another tube and evaporated to dryness at 40°C for 90 min under a gentle stream of nitrogen. The residue was reconstituted with 100 μL of the mobile phase and vortexed for 1 min and then centrifuged for 5 min at 12000 rpm. For analysis, 10 μL of the supernatant was injected onto the HPLC system. The plasma concentrations of the analytes exceeded the upper limit of quantification, and therefore the sample was diluted with blank plasma and vortexed for 1 min. A 100 μL aliquot of diluted sample was processed under the same sample pretreatment procedure as mentioned above.
The preclinical pharmacokinetic study was based on 16 SD rats. The investigation was approved by the Animal Ethics Committee of the Nanjing University of Traditional Chinese Medicine. Two groups of 8 rats each were used according to a parallel study. The clopidogrel-only group received 30 mg/kg oral administration of clopidogrel. The combination group (clopidogrel 30 mg/kg + FDDP 324 mg/kg) received their dose administered as a combination. The rats fasted for 12 h prior to the experiment, while free access to water remained. Plasma samples were collected at 0, 0.25, 0.5, 1, 1.5, 2.3, 4, 6, 8, 10, 12, and 24 h after dosing. Blood samples of 400 μL were obtained via an in-dwelling catheter in the caudal vein and collected into heparinized tubes. Then, the plasma was centrifuged for 10 min at 4000 rpm and the supernatant was transferred to labelled plastic vials at −80°C until the completion of the analysis.
Pharmacokinetic parameters were calculated using Drug and Statistic (DAS) 3.0 pharmacokinetic software (Chinese Pharmacological Association, Anhui, China). The pharmacokinetic parameters included the compartment parameters and statistical parameters (Table 6).
The area under the plasma concentration-time curve (AUC) was calculated using the linear trapezoidal rule. The elimination rate constant (kel) was calculated by linear regression of the terminal points of the semilog plot of the plasma concentration against time. The half-life of drug elimination during the terminal phase (t 1/2) was calculated from the formula t 1/2 = 0.693/kel. Mean residence time (MRT) was calculated as AUMC/AUC, where AUMC is the area under the first moment of the plasma concentration-time curve. The volume of distribution (Vd) of the central compartment was calculated as dose/C 0, where C 0 is the concentration measured just after the administration. Plasma clearance (CL) was calculated as dose/AUC.

The nature of series [3]: Stability of CPGS in plasma samples (HPLC method validation). It is filed as physicochemical, rat. The procedure: Stability experiments were performed to evaluate the analyte stability in stock solutions and in plasma samples under different conditions. Room temperature stability, refrigerated stability of extracted sample, freeze-thaw stability, and long-term stability were performed using three replicates at each QC level.

[4] abbreviates: CPGS in rat plasma, clopidogrel 30 mg/kg intragastric, administered alone, 21 days.
Setting [5] is: CPGS in rat plasma, coadministration clopidogrel 30 mg/kg + FDDP 324 mg/kg intragastric, 21 days.
[6] abbreviates: CPGS in rat plasma, coadministration clopidogrel 30 mg/kg + FDDP 324 mg/kg intragastric, 21 days, P < 0.05 vs clopidogrel-only.
Where [7] appears, read: combination vs clopidogrel alone, rats.
[8] abbreviates: combination vs clopidogrel-only group, rats.
Setting [9] is: combination vs clopidogrel-only group, rats, not statistically significant.

On to `COC(=O)[C@H](c1ccccc1Cl)N1CCc2sccc2C1` [clopidogrel], for which the “Share of absorbed parent drug transformed by CES1 into inactive carboxylic acid derivative (CPGS)” value in series [1] was 85%. Also, the “Share of absorbed clopidogrel dose transformed by CYP into thiol metabolite” value with cytochrome P450 (CYP) is given as 15%. For the same compound, the “Patients displaying inadequate antiplatelet responses” value in the series on antiplatelet responses is 5–40%.
On to `O=C(O)[C@H](c1ccccc1Cl)N1CCc2sccc2C1` [CPGS], for which, in series [2] (setting [4]), the “AUC (0–tn)” value is 90.529 ± 18.557 mg/L∗h, the “AUC (0–∞)” value came out at 104.965 ± 24.367 mg/L∗h, the apparent clearance CL/F was 5.15 ± 2.08 mL/min/kg and the Ka is 6.807 ± 6.698. In series [2] (setting [4]), the MAT is recorded as 13.336 ± 2.566 h, the “MRT (0–tn)” value was 7.453 ± 0.747 h, the “MRT (0–∞)” value was 11.359 ± 2.022 h and the T1/2β is given as 14.788 ± 14.311 h. Besides, in series [2] (setting [4]), the T max is on record as 1.208 ± 0.332 h and the V/F is given as 5.079 ± 2.153 L/kg. Moreover, in series [2] (setting [5]), the “AUC (0–tn)” value was 70.314 ± 35.213 mg/L∗h, the “AUC (0–∞)” value is 76.324 ± 39.971 mg/L∗h, the C max amounted to 10146 ± 4848 ng/mL and the CL/F was determined as 7.58 ± 3.07 mL/min/kg. For the same compound, in series [2] (setting [5]), the Ka is given as 2.519 ± 3.073, the “MRT (0–tn)” value is 6.871 ± 0.741 h, the T1/2β came out at 19.495 ± 18.931 h and the T max is 1.583 ± 0.376 h. Besides, the V/F in series [2] (setting [5]) came to 9.987 ± 9.820 L/kg. Further, in series [2] (setting [6]), the MAT was determined as 8.198 ± 3.556 h and the “MRT (0–∞)” value worked out at 8.854 ± 1.873 h. For the same compound, in series [2] (setting [7]), the “Change of area under the curve of CPGS by FDDP” value is recorded as “decreased” and the “Change of peak plasma concentration of CPGS by FDDP” value is reported as “decreased”. Besides, in series [2] (setting [8]), the “Change of MAT of CPGS in the combination group” value is recorded as “greater degrees of decline” and the “Change of MRT (0-∞) of CPGS in the combination group” value was “greater degrees of decline”. Also, in series [2] (setting [9]), the “Change of CL/F of CPGS in the combination group” value was “slightly higher” and the “Change of T max of CPGS in the combination group” value is reported as “slightly higher”. Moreover, the “Pharmacokinetic model describing CPGS” value in series [2] (rat plasma after clopidogrel alone or with FDDP) is “two-compartment open model”. In series [3] (24 h at room temperature), the “Stability in extracted plasma samples” value is given as “stable”. Besides, the “Long-term stability of spiked plasma samples” value in series [3] (stored at −20°C, 20 days) is on record as “stable”.
